The values that follow come from US11192869B2, “CFTR regulators and methods of use thereof” (THE REGENTS OF THE UNIVERSITY OF CALIFORNIA, priority 2015, dated 2021).

Entries after “also recorded” stand apart in the source; their conditions may differ. Where two headings read alike, the source gives them in different places. Where a SMILES comes first, the peptide text is derived from it. Bridges are numbered along the chain shown (N, C = ends).

Data set [1] concerns ocular surface. Kind of data set: Ocular surface potential difference measurements. In kind it is in vivo, mouse. To be noted: wild-type mice, 1-10 μM. On the procedure: Ocular surface potential difference measurements. Open-circuit transepithelial PD were measured continuously in anesthetized mice in response to serial perfusions of different solutions over the ocular surface, as described (21). Mice were anesthetized with Avertin (2,2,2-tribromoethanol, 125 mg/kg intraperitoneal, Sigma-Aldrich, St. Louis, Mo., USA), and core temperature was maintained at 37° C. using a heating pad. Eyes were oriented with the cornea and conjunctiva facing upward and exposed by retracting the eyelid with cross-action forceps. Solutions were isosmolar (320±10 mOsM; compositions provided in ref. 21) and contained 10μ[…] □ indomethacin to prevent CFTR activation by prostaglandins. The ocular surface was perfused at 6 mL/min through plastic tubing using a multireservoir gravity pinch-valve system (ALA Scientific, Westbury, N.Y., USA) and variable-flow peristaltic pump (medium flow model; Fisher Scientific, Fair Lawn, N.J., USA). A probe catheter was fixed 1 mm above the cornea using a micropositioner and a suction cannula was positioned 3 mm from the orbit. The measuring electrode was in contact to the perfusion catheter and connected to a high-impedance voltmeter (IsoMilivolt Meter; WPI). The reference electrode was grounded via a winged 21-gauge needle filled with isosmolar saline, and inserted subcutaneously in the abdomen. Measuring and reference electrodes consisted of Ag/AgCl with 3 M KCl agar bridges.
Ocular surface potential difference measurements. Open-circuit transepithelial PD were measured continuously in anesthetized mice in response to serial perfusions of different solutions over the ocular surface, as described (21). Mice were anesthetized with Avertin (2,2,2-tribromoethanol, 125 mg/kg intraperitoneal, Sigma-Aldrich, St. Louis, Mo., USA), and core temperature was maintained at 37° C. using a heating pad. Eyes were oriented with the cornea and conjunctiva facing upward and exposed by retracting the eyelid with cross-action forceps. […]

The test system of data set [2] is tear secretion. Kind of data set: Tear secretion (phenol red thread). To be noted: for increase of tear fluid secretion: single topical dose, for (at least) four hours. In kind it is in vivo, mouse.
For data set [3] the following is noted: mouse, in vivo.
Data set [4] can be described thus: Ocular toxicity after chronic topical dosing (slit-lamp, lissamine green). Format: in vivo. As to conditions: chronically treated mice. The protocol:
(§1) Lissamine green staining. To assess corneal epithelial disruption, 5 μL of lissamine green (LG) dye (1%) was applied to the ocular surface of isofluorane-anesthetized mice. Photographs of the eye were taken using a Nikon Digital camera adapted to an Olympus Zoom Stereo Microscope (Olympus, Center Valley, Pa., USA). Each corneal quadrant was scored on a 3-point scale by one blinded, trained observer, with the extent of staining in each quadrant classified as: 0, no staining; 1, sporadic (involving <25% of the total surface) staining; grade 2, diffuse punctate staining (25-75%); and grade 3, coalesced punctate staining (>75%). The total grade is reported as the sum of scores from all four quadrants, ranging from 0 to 12.

Data set [5] can be described thus: Tear film pharmacokinetics by LC/MS. To be noted: from quantity recovered vs EC50.
For data set [6] the following is noted: mouse, in vivo, topical or ocular.
Data set [7] has as its target T1, human wild-type CFTR (Homo sapiens, UniProt P13569).
T1 construct: expressed in transfected cells
In words: Short-circuit current in FRT cells expressing wild-type human CFTR. To be noted: for CFTR activation (in words): short-circuit current. In kind it is cell-based. On the procedure:
Short-circuit current measurement. Short-circuit current was measured in FRT cells stably expressing wild-type human CFTR cultured on porous filters as described. The basolateral solution contained 130 mM NaCl, 2.7 mM KCl, 1.5 mM KH2PO4, 1 mM CaCl2, 0.5 mM MgCl2, 10 mM glucose, and 10 mM Na-HEPES (pH 7.3, 37° C.). In the apical solution 65 mM NaCl was replaced by Na gluconate, and CaCl2 was increased to 2 mM, and the basolateral membrane was permeabilized with 250 μg/ml amphotericin B. Short-circuit current was measured in freshly harvested adult mouse colon at 37° C. using symmetrical Krebs-bicarbonate buffer.
Short-circuit current. Fischer rat thyroid (FRT) cells stably expressing wild-type human CFTR were cultured on Snapwell inserts (Corning Costar, Corning N.Y., USA) for short-circuit current (Isc) measurements. After 6-9 days in culture, when the transepithelial resistance was >1000 Ω/cm^2, the inserts were mounted in an Ussing chamber system (World Precision Instruments, Sarasota, Fla., USA). The basolateral solution contained 130 mM NaCl, 2.7 mM KCl, 1.5 mM KH2PO4, 1 mM CaCl2, 0.5 mM MgCl2, 10 mM glucose, and 10 mM Na-HEPES (pH 7.3). In the apical bathing solution, 65 mM NaCl was replaced by Na gluconate, and CaCl2 was increased to 2 mM. Both solutions were bubbled with air and maintained at 37° C. The basolateral membrane was permeabilized with 250 μg/ml amphotericin B (26, 27). Hemichambers were connected to a DVC-1000 voltage clamp via Ag/AgCl electrodes and 3 M KCl agar bridges for Isc recording.

Data set [8] has as its system mouse model of aqueous-deficient dry eye produced by lacrimal gland excision. In words: Lacrimal gland excision (LGE) mouse model of dry eye. In kind it is in vivo. As to conditions: 0.1 nmol topically three times daily. On the procedure: Tear secretion. To measure unstimulated tear production, phenol red threads (Zone-Quick, Oasis Medical, Glendora, Calif., USA) were placed for 10 s in the lateral canthi of isofluorane-anesthetized mice using jewelers' forceps. Tear volume was measured as the length of thread wetting, as visualized under a dissecting microscope. Serial measurements were used to evaluate compound pharmacodynamics after application of 2-μL drops of compound formulations (50-100 μM compound in PBS containing 0.5% polysorbate and 0.5% DMSO) comparing to vehicle.
as §1
Mouse model of dry eye produced by lacrimal gland excision. […]

The conditions of data set [9]: juvenile rats; cited from earlier work.
Data set [10] relates to loperamide-induced mouse model of constipation. Kind of data set: Loperamide-induced mouse model of constipation.
For data set [11] the following is noted: cited from earlier work.

T1 sequence (P13569 whole entry): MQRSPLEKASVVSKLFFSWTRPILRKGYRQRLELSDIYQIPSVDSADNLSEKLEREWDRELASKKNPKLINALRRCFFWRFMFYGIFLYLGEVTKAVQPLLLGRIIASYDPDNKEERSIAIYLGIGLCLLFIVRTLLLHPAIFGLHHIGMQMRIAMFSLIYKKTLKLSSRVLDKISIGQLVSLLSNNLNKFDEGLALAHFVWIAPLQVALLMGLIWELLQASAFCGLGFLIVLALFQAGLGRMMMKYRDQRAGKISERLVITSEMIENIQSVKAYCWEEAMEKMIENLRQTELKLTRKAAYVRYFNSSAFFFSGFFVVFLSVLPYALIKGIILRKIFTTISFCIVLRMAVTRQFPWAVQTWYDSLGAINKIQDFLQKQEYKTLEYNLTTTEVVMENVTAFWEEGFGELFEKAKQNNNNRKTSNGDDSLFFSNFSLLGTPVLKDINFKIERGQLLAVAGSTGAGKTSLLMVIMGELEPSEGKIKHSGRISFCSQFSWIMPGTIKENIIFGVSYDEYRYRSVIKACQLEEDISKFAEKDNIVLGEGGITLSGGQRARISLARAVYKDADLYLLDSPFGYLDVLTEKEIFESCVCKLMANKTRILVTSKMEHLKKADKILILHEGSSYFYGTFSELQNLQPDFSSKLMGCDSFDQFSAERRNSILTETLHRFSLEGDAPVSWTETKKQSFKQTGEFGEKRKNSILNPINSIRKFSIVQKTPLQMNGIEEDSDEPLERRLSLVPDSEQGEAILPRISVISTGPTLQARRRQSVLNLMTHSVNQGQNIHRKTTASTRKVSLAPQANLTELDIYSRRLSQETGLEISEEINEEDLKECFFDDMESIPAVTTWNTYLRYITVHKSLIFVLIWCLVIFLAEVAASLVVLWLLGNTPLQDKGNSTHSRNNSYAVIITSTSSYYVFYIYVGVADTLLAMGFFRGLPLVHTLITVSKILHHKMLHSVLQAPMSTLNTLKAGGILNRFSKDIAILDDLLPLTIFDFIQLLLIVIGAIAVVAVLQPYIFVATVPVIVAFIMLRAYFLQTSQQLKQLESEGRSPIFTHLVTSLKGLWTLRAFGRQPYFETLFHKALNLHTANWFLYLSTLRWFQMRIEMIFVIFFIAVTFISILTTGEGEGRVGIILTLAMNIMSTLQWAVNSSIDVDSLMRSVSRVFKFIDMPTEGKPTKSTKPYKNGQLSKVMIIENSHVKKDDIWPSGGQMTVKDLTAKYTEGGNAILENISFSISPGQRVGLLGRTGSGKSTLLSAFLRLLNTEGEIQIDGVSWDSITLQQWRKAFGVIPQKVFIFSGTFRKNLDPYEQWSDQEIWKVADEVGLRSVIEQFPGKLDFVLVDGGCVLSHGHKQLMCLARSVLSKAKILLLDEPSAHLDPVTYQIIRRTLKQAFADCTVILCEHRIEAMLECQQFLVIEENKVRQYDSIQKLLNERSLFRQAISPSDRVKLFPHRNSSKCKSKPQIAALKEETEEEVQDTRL

With `CCN(CC)c1nc(Nc2ccccc2)nc(OC(C(F)(F)F)C(F)(F)F)n1` [CFTRact-K089], in data set [1], the “change in ocular surface PD (in words)” value is recorded as “large hyperpolarizations”. The “tear fluid secretion in CF mice” value in data set [2] (CF mice) is given as “no effect”. The “increase of tear fluid secretion” value in data set [2] is given as “doubled; also recorded: approximately two-fold”. The “systemic absorption (in words)” value in data set [3] was “without detectable systemic absorption”. Further, in [4], the “LG staining, corneal or conjunctival epithelial disruption” value is “no corneal or conjunctival epithelial disruption” and the “ocular toxicity by slit-lamp evaluation” value was “no signs of ocular toxicity”. The “duration of therapeutic levels in tear fluid” value in data set [5] is reported as “predicts therapeutic levels for at least six hours”. Also, the “tear film bioavailability (in words)” value in data set [6] is “sustained tear film bioavailability”. For the same molecule, the CFTR activation in data set [7] (Isc) is listed as roughly 50 % Vmax. Further, in data set [7] (wild-type CFTR), the “CFTR activation (in words)” value was “fully activated CFTR”. In data set [8], the “corneal / ocular surface epithelial disruption after LGE” value was “prevents corneal epithelial disruption; also recorded: fully prevented; also recorded: prevented ocular surface epithelial disruption” and the “tear secretion / tear volume after LGE” value is on record as “restored tear secretion”.

Take `CC(C)Cn1c(=O)n(C)c(=O)c2[nH]cnc21` [IBMX, 3-isobutyl-1-methylxanthine, reference compound]: the “persistence of tear secretion effect” value in data set [2] (after 2 hours) is “transient and undetectable after 2 hours”.

Consider `CC(C)(C)c1cc(C(C)(C)C)c(NC(=O)c2c[nH]c3ccccc3c2=O)cc1O` [VX-770, reference compound], for which, in data set [9], the “adverse finding on chronic application” value is “cataracts”. The “change in ocular surface PD (in words)” value in data set [1] is reported as “minimal changes”. Moreover, the “increase of tear fluid secretion” value in data set [2] was “little tear secretion”. Further, the “CFTR activation (in words)” value in data set [7] (wild-type CFTR) is “relatively little activity; also recorded: relatively weak activity”. For the same molecule, the Emax in data set [7] (wild-type CFTR, read-out: maximal activation of CFTR) was determined as 15%.

For the molecule `Cn1c(=O)c(-c2cc([N+](=O)[O-])ccc2N)nc2ccccc21` [inactive chemical analog of CFTRact-J027, reference compound], the “efficacy of inactive analog in wildtype mice” value in data set [10] (loperamide model, wildtype mice) was “nor was an inactive chemical analog of CFTRact-J027 effective”.

For the molecule `C[C@@H]1NC(=O)[C@@H]2CCCN2C(=O)[C@H](CC(N)=O)NC(=O)[C@@H]2CSSC[C@H](N)C(=O)N[C@H]3CSSC[C@H](NC1=O)C(=O)N[C@@H]([C@@H](C)O)C(=O)NCC(=O)N[C@H](C(=O)N[C@@H](Cc1ccc(O)cc1)C(=O)O)CSSC[C@H](NC(=O)[C@H](Cc1ccc(O)cc1)NC(=O)[C@H](CCC(=O)O)NC3=O)C(=O)N2` [linaclotide, reference compound] (H-CCEYCCNPACTGCY-OH; disulfide 1-6, 2-10, 5-13), the “stool output, % of the maximal CFTRact-J027 response” value in data set [10] (oral 0.5 mg/kg, loperamide-treated mice) is recorded as 35%. In [11] (chronic constipation patients), the “patients in whom effective” value is roughly 20%.

`CCCCC(F)(F)[C@@]1(O)CC[C@H]2[C@@H](CC(=O)[C@@H]2CCCCCCC(=O)O)O1` [lubiprostone]: in [11] (IBS-C patients), the “patients in whom effective” value is listed as roughly 13%.

On to cholera toxin [reference compound], for which the “persistence of tear secretion effect” value in data set [2] (mouse, in vivo) is “transient and undetectable after 2 hours”.
